Experimental data taken from publication PMC5934995 (Biochemistry, 2017).
Numbering of substitutions follows the chain as printed. In brackets after ≈: the same amount, converted by molar mass. Read-outs that look alike come from different tables or passages of the source. Marks after values point to notes of the source that are not given here.

Tests used:
[1] = tested on: E. coli ATCC 29522; experiment: Growth curves; format: cell-based
[2] = tested on: E. coli ATCC 25922; experiment: Broth microdilution MIC in chemically defined minimal medium; format: cell-based; details: for phenotype induced by treatment (L-Gln dependence of growth): E. coli in minimal medium with or without L-Gln
[3] = tested on: human GS; details: cited from earlier work
[4] = biological target: T1, E. coli GS (Escherichia coli, UniProt P0A9C5); details: cited from earlier work
[5] = biological target: recombinant N-His6-tagged GS from Homo sapiens (Homo sapiens, UniProt P15104); experiment: biochemical; format: biochemical; details: for kinact: pH 7.4
Sequence of recombinant N-His6-tagged GS from Homo sapiens (P15104 whole entry): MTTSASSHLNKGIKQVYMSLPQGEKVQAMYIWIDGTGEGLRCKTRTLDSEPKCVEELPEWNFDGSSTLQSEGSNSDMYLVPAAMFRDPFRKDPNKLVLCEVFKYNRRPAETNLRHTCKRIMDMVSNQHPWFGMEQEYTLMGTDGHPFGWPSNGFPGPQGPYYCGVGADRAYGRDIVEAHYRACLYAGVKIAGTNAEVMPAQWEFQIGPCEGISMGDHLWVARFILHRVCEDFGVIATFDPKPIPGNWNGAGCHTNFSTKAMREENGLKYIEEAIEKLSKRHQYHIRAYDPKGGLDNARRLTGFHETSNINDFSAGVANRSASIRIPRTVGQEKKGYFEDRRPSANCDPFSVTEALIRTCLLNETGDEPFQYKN

[6] = biological target: recombinant N-His6-tagged GS from E. coli (Escherichia coli, UniProt P0A9C5); experiment: biochemical; format: biochemical; details: for kinact: pH 7.4
[7] = biological target: recombinant N-His6-tagged GS from S. aureus (Staphylococcus aureus, UniProt P0A040); experiment: biochemical; format: biochemical; details: for kinact: pH 7.4
Sequence of recombinant N-His6-tagged GS from S. aureus (P0A040 whole entry): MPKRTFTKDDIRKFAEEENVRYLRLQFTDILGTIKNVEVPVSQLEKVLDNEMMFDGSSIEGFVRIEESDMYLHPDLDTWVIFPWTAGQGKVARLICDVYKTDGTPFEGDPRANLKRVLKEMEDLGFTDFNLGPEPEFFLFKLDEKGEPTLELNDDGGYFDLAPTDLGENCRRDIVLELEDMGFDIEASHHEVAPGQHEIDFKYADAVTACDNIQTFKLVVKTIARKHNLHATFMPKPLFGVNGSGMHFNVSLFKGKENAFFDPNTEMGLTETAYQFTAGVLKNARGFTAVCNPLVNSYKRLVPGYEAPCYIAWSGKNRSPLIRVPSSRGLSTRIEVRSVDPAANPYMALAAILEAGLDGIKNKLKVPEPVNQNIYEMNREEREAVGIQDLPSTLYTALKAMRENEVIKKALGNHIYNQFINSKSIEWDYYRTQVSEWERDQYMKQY

[8] = tested on: unadenylylated E. coli GS; details: read-out: KI (literature); cited from earlier work
[9] = biological target: T1, E. coli GS; details: cited from earlier work; remark: listed apart in the source
[10] = biological target: recombinant human GS (Homo sapiens, UniProt P15104); format: biochemical; details: apparent, saturating ATP (10 mM) and NH3 (10 mM)
Sequence of recombinant human GS (P15104 whole entry): as the sequence (P15104 whole entry) above

[11] = biological target: T1, E. coli GS; format: biochemical; details: apparent, saturating ATP (10 mM) and NH3 (10 mM)
[12] = tested on: GS isolated from Leishmania donovani; details: read-out: apparent Km for L-Glu (literature); cited from earlier work
[13] = biological target: recombinant S. aureus GS (Staphylococcus aureus, UniProt P0A040); format: biochemical; details: apparent, saturating ATP (10 mM) and NH3 (10 mM)
Sequence of recombinant S. aureus GS (P0A040 whole entry): as the sequence (P0A040 whole entry) above

[14] = tested on: M. tuberculosis; details: in vivo, cited from earlier work
[15] = tested on: GS; details: relative to Glufos; cited from earlier work
[16] = 23 °C, pH 7.2 phosphate buffer; isomerization to TδL-Thr; cited from earlier work
[17] = substrate: N[C@@H](CCC(=O)O)C(=O)O; experiment: purified protein, by the assay type; format: biochemical; details: pH 7.4
[18] = substrate: Nc1ncnc2c1ncn2[C@@H]1O[C@H](COP(=O)(O)OP(=O)(O)OP(=O)(O)O)[C@@H](O)[C@H]1O; experiment: purified protein, by the assay type; details: other: apparent; saturating L-Glu (50 mM) and NH3 (10 mM); pH 7.4; 37.0 °C
[19] = end point, minimal medium, no amino acid supplement, 37 °C, 18–24 h
[20] = minimal medium supplemented with 5 mM L-Glu
[21] = read-out: apparent Km for ATP (literature)
[22] = apparent, Kitz–Wilson fit, 37 °C

C[C@H](N)C(=O)N[C@@H](C)C(=O)NC(CCP(C)(=O)O)C(=O)O (stereo partly drawn) [AAG, L-Ala-L-Ala-Glufos]
time for which growth was fully suppressed ([1]; 2 μM): > 66 h
phenotype induced by treatment (L-Gln dependence of growth) [2]: glutamine auxotrophy
MIC90 [2, 19]: 0.0005 mM (≈ 0.162 µg/mL)
MIC90 [2, 20]: 0.001 mM (≈ 0.323 µg/mL)

Nc1ncnc2c1ncn2[C@@H]1O[C@H](COP(=O)(O)OP(=O)(O)OP(=O)(O)O)[C@@H](O)[C@H]1O [ATP, adenosine triphosphate]
Km [3, 21]: 1.8 to 2.8 mM
Km [4, 21]: 0.1 to 0.7 mM

CP(=O)(O)CCC(N)C(=O)O (centres unmarked) [Glufos, glufosinate]
kinact/KI [5]: 100 M⁻¹ s⁻¹
kinact [5]: 0.9 min⁻¹
kinact/KI [6]: 11700 M⁻¹ s⁻¹
difference in inhibitor efficiency (kinact/KI) for E. coli and human GS ([6]; E. coli GS versus human GS): 120 fold
kinact [6]: 0.7 min⁻¹
kinact/KI [7]: 500 M⁻¹ s⁻¹
kinact [7]: 0.00667 s⁻¹
Ki [8]: 1000 nM

C[P@](=O)(CC[C@H](N)C(=O)O)OP(=O)(O)O [Glufos-Pi, phospho-glufosinate]
number of GS active sites occupied (of 12) [9]: 11

N[C@@H](CCC(=O)O)C(=O)O [L-Glu]
Km ([3]; read-out: L-Glu Km (literature), recombinant human enzyme expressed in E. coli, colorimetric assay): 3.5 ± 0.7 mM
kcat (L-Glu) [10]: 85 ± 5 s⁻¹
Km ([10]; read-out: Km (L-Glu)): 37 ± 5 mM
Km ([4]; read-out: apparent Km for L-Glu (literature)): 0.8 to 6.6 mM
kcat (L-Glu) [11]: 131.7 ± 5 s⁻¹
Km ([11]; read-out: Km (L-Glu)): 7.2 ± 0.8 mM
Km [12]: 26.3 ± 0.4 mM
kcat (L-Glu) [13]: 23.33 ± 1.67 s⁻¹
Km ([13]; read-out: Km (L-Glu)): 52 ± 7 mM

CS(=N)(=O)CC[C@H](N)C(=O)O (some centres unmarked) [MetSox, Methionine sulfoximine]
tolerability ([14]; guinea pig): well tolerated
efficacy in guinea pig lung infection model [14]: effective and synergistic with isoniazid
kinact/KI ([5]; apparent inhibitor efficiency): 0.4 ± 0.3 min^−1μM^−1 ×10^3
kinact [5, 22]: 0.4 ± 0.2 min⁻¹
difference in inhibitor efficiency (kinact/KI) for E. coli and human GS [6]: 250 fold
kinact/KI [6]: 100 ± 40 min^−1μM^−1 ×10^3
kinact [6]: 0.4 ± 0.1 min⁻¹
kinact/KI ([7]; apparent inhibitor efficiency): 28 ± 9 min^−1μM^−1 ×10^3
Ki [8]: 2000 nM

CS(=O)(CCC(N)C(=O)O)=NP(=O)(O)O (centres unmarked) [MetSox-Pi, phospho-methionine sulfoximine]
active site occupancy [9]: ~ 80%

N[C@@H](CC[C@]1(O)CNC1=O)C(=O)O [TβL, Tabtoxinine-β-lactam]
kinact/KI (inhibitor efficiency) [5]: 2 ± 1 min^−1μM^−1
kinact/KI ([5]; apparent inhibitor efficiency): 2 ± 1 min^−1μM^−1 ×10^3
kinact [5, 22]: 0.3 ± 0.1 min⁻¹
kinact/KI (inhibitor efficiency) [6]: 180 ± 70 min^−1μM^−1
difference in inhibitor efficiency (kinact/KI) for E. coli and human GS ([6]; E. coli GS versus human GS): 90 fold
kinact/KI ([6]; apparent inhibitor efficiency): 180 ± 70 min^−1μM^−1 ×10^3
kinact [6, 22]: 0.3 ± 0.1 min⁻¹
recovery of GS activity after dialysis of inhibition complex ([6]; several days of dialysis at 4 °C and 37 °C): could not be recovered
kinact/KI (inhibitor efficiency) [7]: 8 ± 3 min^−1μM^−1
kinact/KI ([7]; apparent inhibitor efficiency): 8 ± 3 min^−1μM^−1 ×10^3
kinact [7, 22]: 0.0067 ± 0.0017 s⁻¹

C[C@H](NC(=O)[C@H](C)NC(=O)[C@@H](N)CCP(C)(=O)[O-])C(=O)O.[Na+] [bialaphos sodium salt, Glufos-L-Ala-L-Ala tripeptide, reference compound]
phenotype induced by treatment (L-Gln dependence of growth) [2]: confirmed

NC[C@H]1O[C@H](O[C@H]2[C@H](O)[C@@H](O[C@H]3O[C@H](CO)[C@@H](O)[C@H](N)[C@H]3O)[C@H](N)C[C@@H]2N)[C@H](O)[C@@H](O)[C@@H]1O [kanamycin, reference compound]
MIC ([2]; control antibiotic on every plate, minimal medium): 0.008 mM (≈ 3.88 µg/mL)

CP(=O)(O)C(O)CC(N)C(=O)O (centres unmarked) [γ-hydroxylated variant of Glufos]
increase of the rate of GS activation [15]: 50%

tabtoxin [TβL-Thr]
isomerization half-life [16]: 37 h
growth curve with L-Gln supplementation ([1]; 2 μM, L-Gln supplementation 2.5 mM): matched the control
growth with L-Gln supplementation ([1]; 2 μM, medium supplemented with 0.1 mM L-Gln): recovered to near control levels
time after which growth started to recover ([1]; 2 μM, minimal medium): 26 h
time for which growth was suppressed ([1]; 100 μM): > 50 h
phenotype induced by treatment (L-Gln dependence of growth) [2]: glutamine auxotrophy
MIC90 [2, 19]: 0.0005 mM
MIC90 [2, 20]: 0.001 mM

B1: S. aureus GS (SA) (Staphylococcus aureus subsp. aureus N315) (protein)
chain: MPKRTFTKEDIRKFAEEENVRYLRLQFTDILGTIKNVEVPVSQLEKVLDNEMMFDGSSIEGFVRIEESDMYLHPDLDTWVIFPWTAGQGKVARLICDVYKTDGTPFEGDPRANLKRVLKEMEDLGFTDFNLGPEPEFFLFKLDEKGEPTLELNDDGGYFDLAPTDLGENCRRDIVLELEDMGFDIEASHHEVAPGQHEIDFKYADAVTACDNIQTFKLVVKTIARKHNLHATFMPKPLFGVNGSGMHFNVSLFKGKENAFFDPNTEMGLTETAYQFTAGVLKNARGFTAVCNPLVNSYKRLVPGYEAPCYIAWSGKNRSPLIRVPSSRGLSTRIEVRSVDPAANPYMALAAILEAGLDGIKNKLKVPEPVNQNIYEMNREEREAVGIQDLPSTLYTALKAMRENEVIKKALGNHIYNQFINSKSIEWDYYRTQVSEWERDQYMKQY
Km [17]: 52 ± 7 mM
kcat [17]: 23.3 ± 1.67 s⁻¹
kcat/Km [17]: 450 ± 66.7 M⁻¹ s⁻¹

B2: recombinant S. aureus GS (Staphylococcus aureus) (protein)
chain: B1 chain with E9D
Km [18]: 1.8 ± 0.1 mM
kcat [18]: 12 s⁻¹
kcat/Km [18]: 6670 M⁻¹ s⁻¹

B3: recombinant E. coli GS (Escherichia coli K-12) (protein)
chain: MSAEHVLTMLNEHEVKFVDLRFTDTKGKEQHVTIPAHQVNAEFFEEGKMFDGSSIGGWKGINESDMVLMPDASTAVIDPFFADSTLIIRCDILEPGTLQGYDRDPRSIAKRAEDYLRSTGIADTVLFGPEPEFFLFDDIRFGSSISGSHVAIDDIEGAWNSSTQYEGGNKGHRPAVKGGYFPVPPVDSAQDIRSEMCLVMEQMGLVVEAHHHEVATAGQNEVATRFNTMTKKADEIQIYKYVVHNVAHRFGKTATFMPKPMFGDNGSGMHCHMSLSKNGVNLFAGDKYAGLSEQALYYIGGVIKHAKAINALANPTTNSYKRLVPGYEAPVMLAYSARNRSASIRIPVVSSPKARRIEVRFPDPAANPYLCFAALLMAGLDGIKNKIHPGEAMDKNLYDLPPEEAKEIPQVAGSLEEALNELDLDREFLKAGGVFTDEAIDAYIALRREEDDRVRMTPHPVEFELYYSV
Km [18]: 0.7 ± 0.1 ^a mM
kcat [18]: 122 s⁻¹
kcat/Km [18]: 173000 M⁻¹ s⁻¹

B4: E. coli GS (EC) (Escherichia coli K-12) (protein)
chain: SAEHVLTMLNEHEVKFVDLRFTDTKGKEQHVTIPAHQVNAEFFEEGKMFDGSSIGGWKGINESDMVLMPDASTAVIDPFFADSTLIIRCDILEPGTLQGYDRDPRSIAKRAEDYLRSTGIADTVLFGPEPEFFLFDDIRFGSSISGSHVAIDDIEGAWNSSTQYEGGNKGHRPAVKGGYFPVPPVDSAQDIRSEMCLVMEQMGLVVEAHHHEVATAGQNEVATRFNTMTKKADEIQIYKYVVHNVAHRFGKTATFMPKPMFGDNGSGMHCHMSLSKNGVNLFAGDKYAGLSEQALYYIGGVIKHAKAINALANPTTNSYKRLVPGYEAPVMLAYSARNRSASIRIPVVSSPKARRIEVRFPDPAANPYLCFAALLMAGLDGIKNKIHPGEAMDKNLYDLPPEEAKEIPQVAGSLEEALNELDLDREFLKAGGVFTDEAIDAYIALRREEDDRVRMTPHPVEFELYYSV
Km [17]: 7.2 ± 0.8 mM
kcat [17]: 132 ± 5 s⁻¹
kcat/Km [17]: 18300 ± 1670 M⁻¹ s⁻¹
